Experimental data reported in ChEMBL document CHEMBL5518200, “Heterocyclic-Modified Imidazoquinoline Derivatives: Selective TLR7 Agonist Regulates Tumor Microenvironment against Melanoma” (J Med Chem, 2024).
Values belong to the molecule of their own block, whether it stands above or below them.

Legend:
Toll-like receptor 7 [1] = biological target: T1, Toll-like receptor 7 (Homo sapiens, UniProt Q9NYK1); assay: Agonist activity at TLR7 in HEK-Blue hTLR7 cells expressing NF-kappaB/AP-1 inducible SEAP assessed as increase in SEAP activity incubated for 24 hrs by QUANTI-Blue assay; type: cell-based
T1 sequence (Q9NYK1 whole entry): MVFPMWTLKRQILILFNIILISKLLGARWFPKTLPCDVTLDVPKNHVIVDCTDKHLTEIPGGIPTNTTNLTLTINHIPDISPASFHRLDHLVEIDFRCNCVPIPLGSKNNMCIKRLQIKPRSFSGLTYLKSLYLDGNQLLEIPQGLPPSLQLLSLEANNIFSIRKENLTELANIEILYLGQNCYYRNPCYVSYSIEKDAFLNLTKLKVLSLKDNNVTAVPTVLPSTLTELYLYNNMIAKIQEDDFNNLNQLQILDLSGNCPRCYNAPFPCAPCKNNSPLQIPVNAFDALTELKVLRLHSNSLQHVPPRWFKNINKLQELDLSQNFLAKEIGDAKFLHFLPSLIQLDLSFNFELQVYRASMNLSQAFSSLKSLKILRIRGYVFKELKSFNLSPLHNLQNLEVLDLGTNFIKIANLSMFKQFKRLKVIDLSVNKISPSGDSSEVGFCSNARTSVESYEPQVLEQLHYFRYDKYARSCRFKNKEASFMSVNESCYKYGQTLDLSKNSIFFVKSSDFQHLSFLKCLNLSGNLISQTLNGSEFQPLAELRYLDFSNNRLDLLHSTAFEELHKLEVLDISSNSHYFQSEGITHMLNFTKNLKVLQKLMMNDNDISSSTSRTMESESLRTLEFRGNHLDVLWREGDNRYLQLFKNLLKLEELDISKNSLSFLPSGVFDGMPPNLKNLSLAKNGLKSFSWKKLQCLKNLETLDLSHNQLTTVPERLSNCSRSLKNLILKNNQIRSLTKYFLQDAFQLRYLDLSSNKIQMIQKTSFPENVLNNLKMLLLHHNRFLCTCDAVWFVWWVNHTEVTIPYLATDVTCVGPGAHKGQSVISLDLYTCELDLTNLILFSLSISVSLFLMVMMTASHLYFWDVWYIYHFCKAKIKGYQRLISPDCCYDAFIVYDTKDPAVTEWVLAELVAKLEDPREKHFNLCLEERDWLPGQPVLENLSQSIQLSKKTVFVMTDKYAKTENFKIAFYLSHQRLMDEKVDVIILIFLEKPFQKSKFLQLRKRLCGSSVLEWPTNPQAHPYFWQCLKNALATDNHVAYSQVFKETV

[2] = Toxicity in C57BL/6J mouse implanted with mouse B16-F10 cells assessed as reduction in body weight at 2.5 to 20 mg/kg, ip administered every 2 days starting from 3 days post tumor inoculation and measured on day 18; type: organism-based; details: in vivo, 360 h, dose 2.5-20 mg/kg, time 15 day
[3] = Toxicity in C57BL/6J mouse implanted with mouse B16-F10 cells assessed as physical abnormalities at 25 mg/kg, ip administered every 2 days starting from 3 days post tumor inoculation and measured on day 18; type: organism-based; details: in vivo, 360 h, time 15 day
[4] = Toxicity in C57BL/6J mouse implanted with mouse B16-F10 cells assessed as increase in systemic IL-6 secretion in serum at 25 mg/kg, ip administered every 2 days starting from 3 days post tumor inoculation and measured on day 18 by ELISA; type: organism-based; details: in vivo, 360 h, time 15 day
L02 = assay: Cytotoxicity against human L02 cells assessed as reduction in cell viability upto 100 uM incubated for 24 hrs by CCK-8 assay; type: toxicity, cell-based; details: l02, 24 h
Toll-like receptor 7 [5] = biological target: T2, Toll-like receptor 7 (Mus musculus, UniProt P58681); assay: Binding affinity to recombinant mouse TLR7 assessed as dissociation constant by SPR analysis
T2 sequence (P58681 whole entry): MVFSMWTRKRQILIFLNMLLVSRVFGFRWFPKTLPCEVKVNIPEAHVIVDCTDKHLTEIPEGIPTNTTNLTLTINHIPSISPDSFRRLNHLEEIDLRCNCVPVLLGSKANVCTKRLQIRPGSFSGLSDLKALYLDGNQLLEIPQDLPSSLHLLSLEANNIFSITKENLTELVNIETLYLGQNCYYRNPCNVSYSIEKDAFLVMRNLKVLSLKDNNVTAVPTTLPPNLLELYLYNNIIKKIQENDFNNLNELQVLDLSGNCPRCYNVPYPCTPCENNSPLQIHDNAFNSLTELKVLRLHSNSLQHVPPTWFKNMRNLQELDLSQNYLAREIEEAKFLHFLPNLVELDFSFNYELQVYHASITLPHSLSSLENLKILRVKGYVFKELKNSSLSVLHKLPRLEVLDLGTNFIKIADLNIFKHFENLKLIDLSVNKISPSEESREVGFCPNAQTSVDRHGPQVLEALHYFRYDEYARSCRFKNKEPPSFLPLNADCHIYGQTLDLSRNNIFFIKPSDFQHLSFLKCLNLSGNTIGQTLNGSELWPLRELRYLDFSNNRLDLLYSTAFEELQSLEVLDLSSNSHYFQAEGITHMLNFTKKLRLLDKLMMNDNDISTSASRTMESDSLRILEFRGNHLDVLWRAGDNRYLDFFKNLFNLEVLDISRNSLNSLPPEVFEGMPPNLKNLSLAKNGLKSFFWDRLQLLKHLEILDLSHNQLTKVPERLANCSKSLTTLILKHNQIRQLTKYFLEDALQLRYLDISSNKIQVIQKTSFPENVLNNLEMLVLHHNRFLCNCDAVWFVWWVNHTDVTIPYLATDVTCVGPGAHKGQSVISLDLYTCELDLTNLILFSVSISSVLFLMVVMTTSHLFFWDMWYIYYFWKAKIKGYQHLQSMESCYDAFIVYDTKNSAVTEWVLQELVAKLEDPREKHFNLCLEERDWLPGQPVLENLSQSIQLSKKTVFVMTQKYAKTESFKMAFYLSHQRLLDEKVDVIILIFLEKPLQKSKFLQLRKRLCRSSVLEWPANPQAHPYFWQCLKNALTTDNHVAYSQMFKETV

[6] = Toxicity in C57BL/6J mouse implanted with mouse B16-F10 cells assessed as splenomegaly at 25 mg/kg, ip administered every 2 days starting from 3 days post tumor inoculation and measured on day 18; type: organism-based; details: in vivo, 360 h, time 15 day
[7] = Toxicity in C57BL/6J mouse implanted with mouse B16-F10 cells assessed as pathological changes in kidney at 25 mg/kg, ip administered every 2 days starting from 3 days post tumor inoculation and measured on day 18 by H and E staining based analysis; type: organism-based; details: in vivo, 360 h, time 15 day
[8] = Toxicity in C57BL/6J mouse implanted with mouse B16-F10 cells assessed as pathological changes in heart at 25 mg/kg, ip administered every 2 days starting from 3 days post tumor inoculation and measured on day 18 by H and E staining based analysis; type: organism-based; details: in vivo, 360 h, time 15 day
[9] = Toxicity in C57BL/6J mouse implanted with mouse B16-F10 cells assessed as pathological changes in liver at 25 mg/kg, ip administered every 2 days starting from 3 days post tumor inoculation and measured on day 18 by H and E staining based analysis; type: organism-based; details: in vivo, 360 h, time 15 day
L929 = assay: Cytotoxicity against mouse L929 cells assessed as reduction in cell viability upto 100 uM incubated for 24 hrs by CCK-8 assay; type: toxicity, cell-based; details: l929, 24 h
[10] = Toxicity in C57BL/6J mouse implanted with mouse B16-F10 cells assessed as behavioral abnormalities at 25 mg/kg, ip administered every 2 days starting from 3 days post tumor inoculation and measured on day 18; type: organism-based; details: in vivo, 360 h, time 15 day
[11] = Toxicity in C57BL/6J mouse implanted with mouse B16-F10 cells assessed as increase in systemic TNF-alpha secretion in serum at 25 mg/kg, ip administered every 2 days starting from 3 days post tumor inoculation and measured on day 18 by ELISA; type: organism-based; details: in vivo, 360 h, time 15 day
B16-F10 = assay: Antitumor immunity against mouse B16-F10 cells implanted in C57BL/6J mouse assessed as increase in intracellular granzyme B level in tumor CD8-positive T cells at 25 mg/kg, ip administered every 2 days starting from 3 days post tumor inoculation and measured on day 18 by flow cytometry analysis (reference value: 14.5%); type: functional; details: time 15 day
Peritoneal macrophage [12] = assay: Induction of M1 like macrophage polarization in mouse peritoneal macrophages assessed as increase in CD86-positive cells at 10 ug/ml incubated for 24 hrs by flow cytometry analysis (reference value: 18.4%); type: functional; details: dose 10 µg/ml
Peritoneal macrophage [13] = assay: Induction of M1 like macrophage polarization in mouse peritoneal macrophages assessed as decrease in CD206-positive cells at 10 ug/ml incubated for 24 hrs by flow cytometry analysis (reference value: 79%); type: functional; design: scale not given: the % may be the effect or the level left; details: dose 10 µg/ml

SMILES: CCCCc1nc2c(N)nc3ccccc3c2n1CC1CCOC1 (stereo not given)
- Activity [2]: Non-Toxic
- Activity [3]: Non-Toxic
- Activity [4]: Non-Toxic
- Activity (L02): Non-Toxic
- Kd (Toll-like receptor 7 [5]): 0.0472 µM
- Activity [6]: Non-Toxic
- Activity [7]: Non-Toxic
- Activity [8]: Non-Toxic
- Activity [9]: Non-Toxic
- Activity (L929): Non-Toxic
- Activity [10]: Non-Toxic
- Activity [11]: Non-Toxic

SMILES: CCOCc1nc2c(N)nc3ccccc3c2n1CC(C)(C)O [RESIQUIMOD]
- Activity (B16-F10): 49.9%
- Activity (Peritoneal macrophage [12]): 65.8%
- Activity (Peritoneal macrophage [13]): 29.8%

SMILES: CCCCCc1nc2c(N)nc3ccccc3c2n1CC1CCOC1 (stereo not given)
- EC50 (Toll-like receptor 7 [1]): 0.525 µM

SMILES: CCCc1nc2c(N)nc3ccccc3c2n1CC1CCOC1 (stereo not given)
- EC50 (Toll-like receptor 7 [1]): 3.28 µM

Further lines, results first:

- EC50 (Toll-like receptor 7 [1]): 0.226 µM
SMILES: CCCCc1nc2c(N)nc3ccccc3c2n1Cc1ccc(C(=O)NC)cc1

- EC50 (Toll-like receptor 7 [1]): > 20 µM
SMILES: CCCc1nc2c(N)nc3ccccc3c2n1Cc1ccc(C(=O)OC)cc1

- EC50 (Toll-like receptor 7 [1]): > 20 µM
SMILES: CCCCc1nc2c(N)nc3ccccc3c2n1Cc1ccc(OC)cc1
